Data: patent US7348400B2 (priority 2001, dated 2008)
“Also recorded” adds a separate entry of the source.

Tests used:
[1] = tested on: unmyelinated primary afferent sensory nerves; conditions: rat, in vivo
[2] = tested on: injured nerve (sensory nerves); conditions: rat, in vivo
[3] = in vivo; cited from earlier work
[4] = rat, in vivo
[5] = rat, in vivo; remark: listed apart in the source
neuronal nAChR = type: cell-based, bovine
[6] = tested on: rats with chronic constriction injury; conditions: rat, in vivo
nAChR = type: binding, bovine

For `CSCC[C@@H]1NC(=O)[C@H](CC(C)C)NC(=O)[C@H](CCCNC(=N)N)NC(=O)[C@H](CO)NC(=O)[C@@H]2CSSC[C@@H]3NC(=O)[C@H](CO)NC(=O)CNC(=O)[C@H]([C@@H](C)O)NC(=O)[C@H](CSSC[C@H](N)C(=O)N[C@@H](CCCCN)C(=O)NCC(=O)N[C@@H](CCCCN)C(=O)NCC(=O)N[C@@H](C)C(=O)N[C@@H](CCCCN)C(=O)N2)NC(=O)[C@H](CSSC[C@@H](C(N)=O)NC(=O)[C@H](CCCCN)NC(=O)CNC(=O)[C@H](CO)NC(=O)[C@H](CCCNC(=N)N)NC3=O)NC(=O)[C@H](CC(=O)O)NC(=O)[C@H](Cc2ccc(O)cc2)NC1=O` [MVIIA], the “inhibition of the vascular response to LFES of sensory nerves” value [1] is listed as “significant inhibition; also recorded: more effective”, the “recovery of vascular response to substance P compared to control” value [2] is listed as 54% and the “potency relative to morphine” value [3] is listed as 1000 times.

For `CC[C@H](C)[C@@H]1NC(=O)[C@H](CCC(=O)O)NC(=O)[C@@H]2CCCN2C(=O)[C@H](Cc2cnc[nH]2)NC(=O)[C@H](CC(=O)O)NC(=O)[C@H](Cc2ccc(O)cc2)NC(=O)[C@H](CC(N)=O)NC(=O)[C@@H]2CSSC[C@H](NC(=O)CN)C(=O)N[C@@H](CSSC[C@@H](C(N)=O)NC1=O)C(=O)N[C@@H](CO)C(=O)N[C@@H](CC(=O)O)C(=O)N1CCC[C@H]1C(=O)N[C@@H](CCCNC(=N)N)C(=O)N2` [Vc1.1, GCCSDPRCNYDHPEIC-NH2], the “effect upon systemic blood pressure” value [4] was “no effect” and the adverse side-effects [5] was “not observed any adverse side-effects”.

With “G C C S H P A C Y A N N Q D Y C-NH2 [An1.1]” the “inhibition of the neuronal nicotinic response in cultured BCCs (comparison)” value (neuronal nAChR) was “not nearly as inhibitory as Vc1.1”, the “nature of the inhibition of nicotine-evoked catecholamine release” value (neuronal nAChR) was “competitive inhibitor” and the “protection against nicotinic receptor desensitisation” value (neuronal nAChR) was “protects against nicotinic receptor desensitisation”.

With “GCCSD4 -HypRCNYDHPgammacarboxy-GluIC-NH2 [Vc1.1ptm]” the “inhibition of sensory nerve activity (comparison)” value [1] was “less effective than Vc1.1”, the “recovery of vascular response to substance P compared to control” value [2] was 85% and the “long-term effectiveness in inhibiting neuropathic pain” value [6] was “without effect; also recorded: but not Vc1.1ptm was effective”. The “displacement of 3H-epibatidine binding” value (nAChR) was “displaced the first component, but did not significantly displace the second component”.
